From patent US20150135343A1, “GTP Sensors” (The Board of Regents of the University of Texas System, priority 2012, published 2015)

Key:
[1] = target: T1, AF/FA GTP sensor (mAmetrine 1.1 and E. coli FeoB-cpYFP fusion) 11A variant Triple, GNAGKST (SEQ ID NO: 10) (Escherichia coli, UniProt P33650, P12G/S14A/T17S); test: GTP binding analysis, fluorescence titration, sensor Triple
T1 construct: modified pET32, His-tag/NiNTA, E. coli BL21(DE3)
Procedure: (§1) Expression and purification: The FA/AF11A protein construct in a modified pET32 vector was used to transform BL21 (DE3) cells. Protein expression was induced with IPTG at a final concentration of 1 mM when the cell OD600 reached 0.6-0.8. Cells were grown for a further 12-14 hrs at 30° C. overnight. Cells were harvested in the morning, suspended in 50 mM TrisHCl, pH 8.3, 2 mM NaCl, 0.1% (v/v) Tween-20, 10 mM imidazole, 1 mM PMSF (lysis buffer), and lysed by sonication. Cell debris was removed by spinning at 17000 rpm for 30 minutes at 4° C. in a Sorvall RC-5C centrifuge equipped with a SS-34 rotor. The lysate, which is bright yellow, was applied to a NiNTA column equilibrated with the same lysis buffer. The loaded NiNTA column was washed with 5 volumes of the lysis buffer followed by 2-volumes of 50 mM TrisHCl, pH8.3, 400 mM NaCl, 50 mM imidazole. Then the protein was eluted in 2 volumes of 50 mM TrisHCl, pH 7.5, 100 mM NaCl, 300 mM imidazole. […] Protein concentration was determined with a BCA assay-kit from Invitrogen using bovine serum albumin for the calibration curve.
(§2) Fluorescent emission spectra of FA/AF11A were obtained at ˜1 μM in binding buffer and 3.0 ml in a quartz cuvette. […] Titrations with GTP, GDP, and ATP were carried out in a BioTeK plate reader on 96-well fluorescence plates from Whatman. […]

[2] = target: T2, AF/FA GTP sensor (mAmetrine 1.1 and E. coli FeoB-cpYFP fusion) 11A variant 12, P12G, GNSGKTT (SEQ ID NO: 7) (Escherichia coli, UniProt P33650, P12G); test: GTP binding analysis, fluorescence titration, sensor 12
T2 construct: modified pET32, His-tag/NiNTA, E. coli BL21(DE3)
Procedure: as §1, §2

[3] = target: T3, AF/FA GTP sensor (mAmetrine 1.1 and E. coli FeoB-cpYFP fusion) 11A variant 1214, P12G+S14A, GNAGKTT (SEQ ID NO: 8) (Escherichia coli, UniProt P33650, P12G/S14A); test: GTP binding analysis, fluorescence titration, sensor 1214
T3 construct: modified pET32, His-tag/NiNTA, E. coli BL21(DE3)
Procedure: as §1, §2

[4] = target: T4, AF/FA GTP sensor (mAmetrine 1.1 and E. coli FeoB-cpYFP fusion) 11A variant 1217, GNSGKST (SEQ ID NO: 9) (Escherichia coli, UniProt P33650, P12G/T17S); test: GTP binding analysis, fluorescence titration, sensor 1217
T4 construct: modified pET32, His-tag/NiNTA, E. coli BL21(DE3)
Procedure: as §1, §2

[5] = test system: FeoB, G-protein domain of FeoB protein from Escherichia coli, SEQ ID NO:3; conditions: cited from earlier work
[6] = test system: HEK293 cells transfected with AF-AAA GTP sensor; test: MPA treatment of HEK293 cells expressing AF-AAA sensor, ratiometric imaging; type: cell-based; conditions: 20 μM MPA, 20 hrs; GTP-insensitive control sensor
Procedure: (§3) AF/FA GTP sensors were subcloned into a pGW1 mammalian cell expression vector with a cytomegalovirus (CMV) promoter. HEK293 cells were transfected with the plasmid DNA using the GenJet (SignaGen) transfection reagent according to the manufacturer's instructions. Cells were allowed to grow for ˜24 hrs before being treated with mycophenolic acid (MPA), which inhibits GTP synthesis. Cells were imaged 20 hrs after drug administration. All cell cultures were carried out with DMEM containing 10% FBS and penicillin/streptomycin and grown at 37° C. in an atmosphere with 5% CO2. Passage number of cells was less than 30 for all experiments.
(§4) Imaging: Cells were imaged in a LabTek 8-chamber 1.5 coverslip-bottom culture-cum-imaging wells. Nikon Eclipse inverted epifluorescence microscope with Sedat Quad 89000 (Chroma Tech) filter along with Sutter instruments automated filter wheel controls was used for all imaging purposes. To ensure adequate signal, 2×2 binning was used. […]
(§5) Images were obtained individually without using the Nikon NIS software ratiometric collection mode. All image quantitative analyses were carried out with the public domain ImageJ (http://rsbweb.nih.gov/ij/) in conjunction with MS Excel and Origin 7. […] Then the ratios of the two intensities were calculated along with the relevant statistics.

HEK293 cells = test: In vivo validation: ratiometric imaging of transfected HEK293 cells with or without MPA; type: cell-based; conditions: 20 μM MPA, HEK293 cells with AF-Triple sensor
Procedure: as §3, §4, §5

[7] = test system: HEK293 cells transfected with AF-Triple GTP sensor; test: MPA treatment of HEK293 cells expressing AF-Triple sensor, ratiometric imaging; type: cell-based; conditions: 20 μM MPA
Procedure: as §3, §4, §5

[8] = target: T5, 5a5a-GTP sensor (E. coli FeoB-cpYFP fusion), 5a5a-WT, SEQ ID NO:14 (Escherichia coli, UniProt P33650, E42P/INS38[…]); test: Effective dissociation constant (Keff) determination, 5a5a-WT; type: binding; conditions: FIG. 7 and FIG. 8
T5 construct: made in house
From the text: DNA encoding a cpYFP was inserted into the DNA encoding residues 35-40 of the FeoB G-protein domain (residues 1-260). Six insertion sites—spaced one codon apart—and 4 combinations of linker lengths between the N- and C-termini of the cpYFP and FeoB genes were used to construct 24 different fusion proteins. Nomenclature followed the form “FY1a-1a”, were the number designates the cpYFP insertion site, with “1” corresponding to insertion after FeoB residue 35 and “6” to insertion after residue 40, and where an “a” after the number indicates the presence of a ser-ala-gly or gly-thr linker at, respectively, the N- or C-terminus of the cpYFP.
The fluorescence from the GTP insensitive protein provided a way to normalize the GTP-sensitive fluorescent signal. […] The ratio of the fluorescence at these two excitation wavelengths is therefore internally normalized for changes in sensor expression levels. In addition, using a single FP provides certain advantages over a 2-FP sensor: (1.) A single FP sensor still generates a ratiometric signal because the binding of GTP causes a […] in fluorescence when excited at longer wavelengths (˜500 nm) but a […] in when excited at shorter (˜400 nm) wavelengths. […] (3.) The change in fluorescence ratio varies from 2-6 fold, depending on pH. […]

SMILES: Nc1nc2c(ncn2[C@@H]2O[C@H](COP(=O)(O)OP(=O)(O)O)[C@@H](O)[C@H]2O)c(=O)[nH]1 [GDP]
- Kd [1]: ~1000 µM
- Kd [2]: 382 µM
- Kd [3]: 525 µM
- Kd [4]: ~650 µM
- rate of GDP release ([5]; 35° C., too fast to measure by stop-flow methods, estimated): > 1000 s⁻¹

SMILES: Nc1nc2c(ncn2[C@@H]2O[C@H](COP(=O)(O)OP(=O)(O)OP(=O)(O)O)[C@@H](O)[C@H]2O)c(=O)[nH]1 [GTP, guanosine triphosphate]
- Kd [1]: 517 µM
- Kd [2]: 85 µM
- Kd [3]: 177 µM
- Kd [4]: 275 µM
- off-rate (GTP) ([5]; 35° C.): 12 s⁻¹
- on-rate for GTP ([5]; 35° C.): 800000 M⁻¹ s⁻¹
- rate of GTP hydrolysis [5]: 0.0015 s⁻¹
- rate of GTP hydrolysis, fold slower than the rate of GTP release ([5]; ratio): about 5000 fold

SMILES: COc1c(C)c2c(c(O)c1C/C=C(\C)CCC(=O)O)C(=O)OC2 [MPA, mycophenolic acid]
- effect of MPA treatment on ratiometric signal [6]: no effect
- cpYFP (green) signal of cells vs untreated (HEK293 cells): brighter green hue
- effect of MPA treatment on ratiometric signal (distribution of ratio and average value) ([7]; 20 hrs, p-value of 0.005): distinct difference in the distribution of the ratio as well as the average value
- GTP-sensitive signal (cpYFP green) after MPA treatment ([7]; signal inversely related to GTP concentration): brighter green hue than those untreated

SMILES: Nc1nc2c(ncn2[C@H]2C[C@H](O)[C@@H](COP(=O)(O)OP(=O)(O)OP(=O)(O)O)O2)c(=O)[nH]1 [dGTP]
- binding of dGTP relative to GTP [8]: as well as, if not slightly better than GTP itself
